We go through one molecule from patent publication US20170239323A1, “ORITAVANCIN FORMULATIONS” (The Medicines Company, priority 2016, published 2017).

The nature of data set [1]: Double-blind pharmacokinetic study of a single 1200 mg IV dose of oritavancin in healthy volunteers. As to conditions: human, plasma, healthy subjects, average. It is filed as in vivo. The method, then: A randomized, double-blind, single center cohort study of a new formulation of a single 1200 mg IV dose of oritavancin in healthy volunteers, adjusting infusion time, concentration and reconstitution/administration solutions, of a single 1200 mg intravenous (IV) infusion of oritavancin in healthy adult subjects, was performed. Cohort 1 was administered the current, approved formulation of oritavancin which uses Sterile Water For Injection (SWFI) as the reconstituting agent and D5W for further dilution for a volume of 1000 mL. This infusion was given per the approved label over three hours. Cohort 2 was administered a new formulation for which hydroxypropyl-β-cyclodextrin (HPBCD) was included in the reconstitution diluent and D5W is used for further dilution for a total volume of 250 mL. This formulation was administered over two hours. Cohorts 3, 4, and 5 were administered the same new formulation as Cohort 2 (HPBCD and 250 mL of D5W); however, the infusion was administered over 90, 60, 30 minutes respectively. Two subjects in each of Cohorts 2, 3, 4, and 5 received a placebo infusion of D5W to use as a comparison when reviewing adverse event data. Healthy volunteer subjects providing informed consent and meeting all study eligibility criteria were randomized in the study and received one 1200 mg dose of IV oritavancin or placebo (cohorts 2-5 only).
COHORT 1: At the time of use, each vial was reconstituted by adding 40 mL of Sterile Water or for Injection, (“SWFI,” United States Pharmacopeia) to each 400 mg vial of oritavancin. Vials reconstituted in this manner gave a 10 mg/mL solution. After reconstitution, the compositions were combined and further diluted in 5% dextrose in water (D5W) to provide a total volume of approximately 1000 mL. At each dosing, 1200 mg of oritavancin in 1000 mL total of diluent was administered at a constant rate IV infusion over 3 hours via a single dedicated peripheral IV line (n=6).
(§1) COHORT 2: At the time of use, each vial was reconstituted by adding 4 mL of SWFI and 4 mL of 20% (w/v) HPBCD solution, to each 400 mg vial of oritavancin. Vials reconstituted in this manner provided a 50 mg/mL oritavancin solution. After reconstitution, the compositions were combined and further diluted in 5% dextrose in water (D5W) to provide a total volume of approximately 250 mL. At each dosing, 1200 mg of oritavancin in 250 mL of diluent was administered as a constant rate IV infusion over 2 hours via a single dedicated peripheral IV line (n=8) or a 2 hour placebo IV infusion of 250 mL of D5W (n=2).
as §1, with “3:” for “2:”, “90 minutes” for “2 hours”, “90 minute” for “2 hour”, “placebo” for “placebo IV”
as §1, with “4:” for “2:”, “60 minutes” for “2 hours”, “60 minute” for “2 hour”, “placebo” for “placebo IV”
COHORT 5: At the time of use, each vial was reconstituted by adding 4 mL of SWFI and 4 mL of 20% (w/v) HPBCD solution, to each 400 mg vial of oritavancin. […]

For data set [2] the following is noted: radiolabeled PK study ADME-rpt-7-053r95; cited from earlier work.
[3] abbreviates: Cohort 1: 1200 mg IV, approved formulation (SWFI, no HPBCD), D5W 1000 mL, 3 h infusion.
Where [4] appears, read: Cohort 2: 1200 mg IV, HPBCD formulation, D5W 250 mL, 2 h infusion.
Where [5] appears, read: Cohort 3: 1200 mg IV, HPBCD formulation, D5W 250 mL, 1.5 h infusion.
[6] abbreviates: Cohort 4: 1200 mg IV, HPBCD formulation, D5W 250 mL, 1 h infusion.
[7] abbreviates: Cohort 5: 1200 mg IV, HPBCD formulation, D5W 250 mL, 0.5 h infusion.
The mark [8] stands for this setting: Cohort 6: 1200 mg IV, HPBCD formulation, NS 250 mL, 1 h infusion.

With `CN[C@H](CC(C)C)C(=O)N[C@H]1C(=O)N[C@@H](CC(N)=O)C(=O)N[C@H]2C(=O)N[C@H]3C(=O)N[C@H](C(=O)N[C@H](C(=O)O)c4cc(O)cc(O)c4-c4cc3ccc4O)[C@H](O[C@H]3C[C@](C)(N)[C@@H](O)[C@H](C)O3)c3ccc(c(Cl)c3)Oc3cc2cc(c3O[C@@H]2O[C@H](CO)[C@@H](O)[C@H](O)[C@H]2O[C@H]2C[C@](C)(NCc3ccc(-c4ccc(Cl)cc4)cc3)[C@@H](O)[C@H](C)O2)Oc2ccc(cc2Cl)[C@H]1O` [Oritavancin], the total exposure AUC(0-inf) (in general, the area under the concentration-time curve extrapolated to infinity) in data set [1] (setting [3]) came out at 3680 µg·h/mL; in data set [1] (setting [4]) it was 2710 µg·h/mL; in data set [1] (setting [5]) it was 2850 µg·h/mL; in data set [1] (setting [6]), 2870 µg·h/mL; in data set [1] (setting [7]), 3180 µg·h/mL; in data set [1] (setting [8]), 2960 µg·h/mL. For the same molecule, the Cmax (usually the peak of the concentration-time curve) was found to be 183 µg/mL in data set [1] (setting [3]); 153 µg/mL in data set [1] (setting [4]); 177 µg/mL in data set [1] (setting [5]); 202 µg/mL in data set [1] (setting [6]); 199 µg/mL in data set [1] (setting [7]); 206 µg/mL in data set [1] (setting [8]). The “plasma AUC relative to whole blood AUC” value in data set [2] is listed as 1.59 ×. For the same molecule, in data set [2], the “whole blood AUC as percentage of plasma AUC” value is on record as 62.8%.
